Results: patent US10717746B2, “Chemical compounds” (ASTRAZENECA AB, priority 2015, dated 2020)
Structures can show the parent of a compound that is named as a salt. Where two headings read alike, the source gives them in different places.

How the values were obtained:
[1] = tested on: phosphorylation of RNA Polymerase II (RNAPII) at the Ser2 site in MCF7 cells; assay: MCF7 pSer2 RNAPII MOA assay (immunofluorescence); format: cell-based; details: 6-hr treatment, read-out: p-Ser 2 RNAPII (IC50)
Experimental: MCF7 pSer2 RNAPII MOA Assay
This is an immunofluorescence assay to determine the effect of CDK9 inhibitors on phosphorylation of RNA Polymerase II (RNAPII) at the Ser2 site in the breast cancer cell line, MCF7. On day one, 2500 MCF7 cells/well were seeded in 30 μl of growth media (RPMI+10% FBS+1% L-Glu+P/S) in 384-well black-wall clear-bottom plates, incubate plates overnight at 37° C. incubator. On the second day, the cells were treated with CDK9 inhibitors (7 point dose response ranging from 3 μM to 0.004 μM) using an ECHO liquid handler (Labcyte). After 6-hr treatment at 37° C. incubator, the cells were fixed with 30 µl/well 7.4% paraformaldehyde for 15 min at room temperature; the cells were washed twice with PBS, then permeabilized with 0.3% Triton X/PBS for 5 min at room temperature. After washing cells with PBS, the cells were incubated with 1:2000 diluted Anti-Ser2 Phospho-RNA pol II antibody (Covance MMS-129R) in 3% FBS/0.1% PBST overnight at 4° C. On the next day, the cells were washed twice with 0.1% PBST, then incubated with 1:1000 diluted Alexa Fluor 488 Goat-anti-mouse antibody (Life Technologies A-11001) and 1:4000 diluted DAPI at room temperature in dark. After one hour incubation, the cells were washed twice with 0.1% PBST, and once with PBS. The plates where sealed and read on an Acumen eX3 microplate cytometer (TTP Labtech) to assess phosphorylation level in each well.

CDK9/CycT1 [2] = target: T1, CDK9/CycT1 (Homo sapiens (Human), UniProt P50750); assay: CDK9 kinase assay, high ATP concentration (5 mM ATP); format: biochemical; details: 1.5 nM CDK9, read-out: CDK9 High ATP conc. (IC50)
Experimental: (§1) Activity of CDK9 was determined in-vitro using a mobility shift assay on a Caliper LC3000 reader (Caliper/PerkinElmer), which measures fluorescence of a phosphorylated and unphosphorylated fluorescent peptide substrate and calculates a ratiometric value to determine percent turnover. Phosphorylation of the peptide in the presence and absence of the compound of interest was determined. Enzyme/substrate/adenosine triphosphate (ATP) mix (3 nM CDK9/CycT1, 6 μM ATP, 1.5 μM CDK9 peptide substrate (FITC-X-GSRTPMY-NH2 (X: epsilon aminocaproic acid)), 50 mM HEPES (pH7.2), 1 mM dithiothreitol, 0.01% tween 20, 50 μg/mL bovine serum albumin, (final assay concentration)) (5 μl) was preincubated with 2 μl of compound for 15 minutes at 25° C. Reactions were initiated with 5 μl of 24 mM MgCl2 (10 mM final assay concentration) in buffer (50 mM HEPES (pH7.2), 1 mM dithiothreitol, 0.01% tween 20, 50 μg/mL bovine serum albumin, (final assay concentration) and incubated at 25° C. for 90 minutes and reactions were stopped by addition of 5 μl of Stop mix consisting of 65 mM HEPES (pH7.2), 35.5 mM EDTA, 0.227% Coatin Reagent 3 (Caliper/PerkinElmer), and 0.003% Tween. Phosphorylated and unphosphorylated substrate was detected by a Caliper LC3000 reader (Caliper/PerkinElmer) in the presence of separation buffer consisting of 100 mM HEPES (pH7.2), 15.8 mM EDTA, 0.1% Coatin Reagent 3 (Caliper/PerkinElmer), 0.015% Brij-35, 5% DMSO, and 5.6 mM MgCl2. CDK9 enzyme was acquired from Carna Biosciences (Catalogue number 04-110), the CDK9 peptide substrate was acquired from Intonation (Boston, Mass.; Custom-made).
High ATP assays were run the same way with the following modifications: the final assay concentration of CDK9 was 1.5 nM and the final assay concentration of ATP was 5 mM.

CDK9/CycT1 [3] = target: T1, CDK9/CycT1; assay: CDK9 kinase assay, ATP concentration at Km (mobility shift, Caliper LC3000); format: biochemical; details: 6 μM ATP, 3 nM CDK9/CycT1; read-out: CDK9 ATP conc. at Km (IC50)
Experimental: as §1

MV411 cells = assay: MV411 caspase activity assay (Caspase-Glo 3/7); format: cell-based; details: Homo sapiens, MV4-11, 6 h, 6-hr treatment, caspase 3/7 induction
Experimental: MV411 Caspase Activity Assay
This is a cell assay to measure the induction of caspase activity in the acute myeloid leukemia cell line, MV411 after 6-hr treatment with CDK9 inhibitors. On the first day, 3000 MV411 cells/well were seeded in 50 μl of growth media (IMDM+10% FBS+2% L-Glu+P/S) in 384-well white plates, incubate plates in 37° C. incubator overnight. […] After 6 hour incubation in 37° C. incubator, 25 μl of Caspase-Glo 3/7 reagent (Promega) per well was added into each well, and plates were incubated at room temperature for 30 min in dark. The plates were read on an Infinite M200 microplate reader (Tecan) with a 100 ms integration time.

T1 sequence (P50750 whole entry): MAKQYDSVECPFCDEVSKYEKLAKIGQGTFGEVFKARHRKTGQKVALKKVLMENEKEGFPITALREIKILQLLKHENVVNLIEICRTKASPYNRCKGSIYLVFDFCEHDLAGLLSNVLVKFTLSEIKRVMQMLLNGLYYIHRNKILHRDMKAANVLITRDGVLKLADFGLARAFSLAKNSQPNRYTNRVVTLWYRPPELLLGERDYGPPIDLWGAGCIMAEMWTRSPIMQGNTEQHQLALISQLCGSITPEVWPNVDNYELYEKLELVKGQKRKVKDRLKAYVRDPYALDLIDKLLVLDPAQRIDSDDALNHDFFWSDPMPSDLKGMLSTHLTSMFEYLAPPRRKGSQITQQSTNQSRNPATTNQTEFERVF
T1 sequence (O60563 whole entry partner): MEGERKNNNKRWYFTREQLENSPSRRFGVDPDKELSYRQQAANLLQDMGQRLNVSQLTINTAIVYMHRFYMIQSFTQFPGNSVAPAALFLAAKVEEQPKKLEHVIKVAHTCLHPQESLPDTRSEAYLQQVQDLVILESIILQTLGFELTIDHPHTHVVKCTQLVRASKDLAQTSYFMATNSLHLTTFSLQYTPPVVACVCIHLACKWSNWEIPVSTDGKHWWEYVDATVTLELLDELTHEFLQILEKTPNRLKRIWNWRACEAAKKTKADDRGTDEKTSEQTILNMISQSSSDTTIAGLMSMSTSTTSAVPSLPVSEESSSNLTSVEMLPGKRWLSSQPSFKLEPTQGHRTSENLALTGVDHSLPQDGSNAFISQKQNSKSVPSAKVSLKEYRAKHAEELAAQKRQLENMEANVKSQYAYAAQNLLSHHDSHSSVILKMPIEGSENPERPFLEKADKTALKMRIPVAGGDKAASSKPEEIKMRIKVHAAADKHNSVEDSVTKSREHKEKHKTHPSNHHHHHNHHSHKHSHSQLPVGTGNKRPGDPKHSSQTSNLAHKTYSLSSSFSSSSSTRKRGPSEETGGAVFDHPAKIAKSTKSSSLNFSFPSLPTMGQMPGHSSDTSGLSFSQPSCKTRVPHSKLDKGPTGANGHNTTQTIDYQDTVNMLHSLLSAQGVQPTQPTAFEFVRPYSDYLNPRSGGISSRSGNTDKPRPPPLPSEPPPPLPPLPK

## O=C(Nc1cc(-c2cnn3c2CCCC3)ccn1)[C@H]1C[C@@H](O)C1 [Example 6, cis-3-hydroxy-N-(4-(4,5,6,7-tetrahydropyrazolo[1,5-a]pyridin-3-yl)pyridin-2-yl)cyclobutanecarboxamide]
[1]; Homo sapiens, MCF7, 6 h
  IC50: 0.46 µM
CDK9/CycT1 [2]
  IC50: 0.75 µM
CDK9/CycT1 [3]
  IC50: 0.008 µM
MV411 cells
  IC50: 0.63 µM

## CC(=O)N[C@@H]1CCC[C@H](C(=O)Nc2cc(-c3cnc4n3CCCC4)c(Cl)cn2)C1 [Example 7, (1S,3R)-3-acetamido-N-(5-chloro-4-(5,6,7,8-tetrahydroimidazo[1,2-a]pyridin-3-yl)pyridin-2-yl)cyclohexanecarboxamide]
[1]; Homo sapiens, MCF7, 6 h
  IC50: 1.45 µM
CDK9/CycT1 [2]
  IC50: 0.69 µM
CDK9/CycT1 [3]
  IC50: 0.008 µM
MV411 cells
  IC50: 1.18 µM

## CC(=O)N[C@@H]1CCC[C@H](C(=O)Nc2cc(-c3cnn4c3CCC(C)C4)c(Cl)cn2)C1 (single isomer, unassigned) [Example 68]
[1]; Homo sapiens, MCF7, 6 h
  IC50: 0.131 µM
CDK9/CycT1 [2]
  IC50: 0.053 µM
CDK9/CycT1 [3]
  IC50: < 0.003 µM

## CC(=O)N[C@@H]1CCC[C@H](C(=O)Nc2cc(-c3cnc4n3CC(C)(C)C4)c(Cl)cn2)C1 [Example 22, (1S,3R)-3-acetamido-N-(5-chloro-4-(6,6-dimethyl-6,7-dihydro-5H-pyrrolo[1,2-a]imidazol-3-yl)pyridin-2-yl)cyclohexanecarboxamide]
[1]; Homo sapiens, MCF7, 6 h
  IC50: 0.036 µM
MV411 cells
  IC50: 0.054 µM

## N[C@@H]1CCC[C@H](C(=O)Nc2cc(-c3cnn4c3CCCC4)c(Cl)cn2)C1 [Example 31b, (1S,3R)-3-amino-N-(5-chloro-4-(4,5,6,7-tetrahydropyrazolo[1,5-a]pyridin-3-yl)pyridin-2-yl)cyclohexanecarboxamide dihydrochloride]
[1]; Homo sapiens, MCF7, 6 h
  IC50: 1.8 µM
CDK9/CycT1 [2]
  IC50: 2.65 µM
CDK9/CycT1 [3]
  IC50: 0.036 µM

## CC(=O)N[C@H]1CCC[C@H](C(=O)Nc2cc(-c3cnn4c3CC(C)(C)C4)c(Cl)cn2)C1 (single isomer, unassigned) [Example 59, trans-3-acetamido-N-(5-chloro-4-(5,5-dimethyl-5,6-dihydro-4H-pyrrolo[1,2-b]pyrazol-3-yl)pyridin-2-yl)cyclohexanecarboxamide]
[1]
  IC50: > 2.44 µM

## CC(=O)N[C@H]1CCC[C@@H](C(=O)Nc2cc(-c3cnn4c3CCCC4)c(Cl)cn2)C1 [Example 9, (1R,3S)-3-acetamido-N-(5-chloro-4-(4,5,6,7-tetrahydropyrazolo[1,5-a]pyridin-3-yl)pyridin-2-yl)cyclohexanecarboxamide]
[1]; Homo sapiens, MCF7, 6 h
  IC50: > 3 µM
MV411 cells
  IC50: 4.09 µM

## CC(=O)N[C@@H]1CCC[C@H](C(=O)Nc2cc(-c3cnn4c3CC(C)(C)C4)c(C)cn2)C1 [Example 47, (1S,3R)-3-acetamido-N-(4-(5,5-dimethyl-5,6-dihydro-4H-pyrrolo[1,2-b]pyrazol-3-yl)-5-methylpyridin-2-yl)cyclohexanecarboxamide]
[1]; Homo sapiens, MCF7, 6 h
  IC50: 0.04 µM
MV411 cells
  IC50: 0.074 µM

## CC(=O)N[C@H]1CCC[C@@H](C(=O)Nc2cc(-c3cnn4c3CC(C)(C)C4)c(Cl)cn2)C1 [Example 43, (1R,3S)-3-acetamido-N-(5-chloro-4-(5,5-dimethyl-5,6-dihydro-4H-pyrrolo[1,2-b]pyrazol-3-yl)pyridin-2-yl)cyclohexanecarboxamide]
[1]; Homo sapiens, MCF7, 6 h
  IC50: 0.307 µM
MV411 cells
  IC50: 0.416 µM

## CC(=O)N[C@@H]1CCC[C@H](C(=O)Nc2cc(-c3cnn4c3C(O)C(C)(C)C4)c(Cl)cn2)C1 (single isomer, unassigned) [Example 80]
[1]
  IC50: 0.247 µM
CDK9/CycT1 [2]
  IC50: 0.135 µM
CDK9/CycT1 [3]
  IC50: 0.004 µM

## COC1CCn2ncc(-c3cc(NC(=O)[C@H]4CCC[C@@H](NC(C)=O)C4)ncc3Cl)c2C1 (single isomer, unassigned) [Example 73]
[1]
  IC50: 0.218 µM
CDK9/CycT1 [2]
  IC50: 0.039 µM
CDK9/CycT1 [3]
  IC50: < 0.003 µM

## CC(=O)N[C@@H]1CCC[C@H](C(=O)Nc2cc(-c3cnn4c3CC(C)(C)C4)c(Cl)cn2)C1 [Example 14, (1S,3R)-3-acetamido-N-(5-chloro-4-(5,5-dimethyl-5,6-dihydro-4H-pyrrolo[1,2-b]pyrazol-3-yl)pyridin-2-yl)cyclohexanecarboxamide]
[1]; Homo sapiens, MCF7, 6 h
  IC50: 0.023 µM
MV411 cells
  IC50: 0.014 µM

## CC(=O)N[C@H]1CCC[C@H](C(=O)Nc2cc(-c3cnn4c3CCCC4)c(Cl)cn2)C1 (single isomer, unassigned) [Example 61, trans-3-acetamido-N-(5-chloro-4-(4,5,6,7-tetrahydropyrazolo[1,5-a]pyridin-3-yl)pyridin-2-yl)cyclohexanecarboxamide]
[1]
  IC50: > 3 µM

## CC(=O)N[C@@H]1CCC[C@H](C(=O)Nc2cc(-c3cnn4c3CCC(C)C4)c(Cl)cn2)C1 (single isomer, unassigned) [Example 69]
[1]
  IC50: 0.193 µM
CDK9/CycT1 [2]
  IC50: 0.246 µM
CDK9/CycT1 [3]
  IC50: 0.005 µM

## CC(=O)N[C@@H]1CCC[C@H](C(=O)Nc2cc(-c3cnn4c3CC(C)CC4)c(Cl)cn2)C1 (single isomer, unassigned) [Example 65]
[1]
  IC50: 0.037 µM
CDK9/CycT1 [2]
  IC50: < 0.004 µM
CDK9/CycT1 [3]
  IC50: < 0.003 µM

## CC(=O)N[C@@H]1CCC[C@H](C(=O)Nc2cc(-c3cnn4c3CC(C)C4)c(Cl)cn2)C1 (single isomer, unassigned) [Example 41]
[1]
  IC50: 0.076 µM
CDK9/CycT1 [2]
  IC50: 0.027 µM
CDK9/CycT1 [3]
  IC50: < 0.003 µM

## COC1CCc2c(-c3cc(NC(=O)[C@H]4CCC[C@@H](NC(C)=O)C4)ncc3Cl)cnn2C1 (single isomer, unassigned) [Example 71]
[1]
  IC50: > 2.35 µM
CDK9/CycT1 [2]
  IC50: 1.72 µM
CDK9/CycT1 [3]
  IC50: 0.016 µM

## CC(=O)N[C@@H]1CCC[C@H](C(=O)Nc2cc(-c3cnn4c3CCCC4)c(Cl)cn2)C1 [Example 2, (1S,3R)-3-acetamido-N-(5-chloro-4-(4,5,6,7-tetrahydropyrazolo[1,5-a]pyridin-3-yl)pyridin-2-yl)cyclohexanecarboxamide]
[1]; Homo sapiens, MCF7, 6 h
  IC50: 0.13 µM
MV411 cells
  IC50: 0.12 µM

## COC1CCc2c(-c3cc(NC(=O)[C@H]4CCC[C@@H](NC(C)=O)C4)ncc3Cl)cnn2C1 (single isomer, unassigned) [Example 70]
[1]
  IC50: 0.073 µM
CDK9/CycT1 [2]
  IC50: 0.02 µM
CDK9/CycT1 [3]
  IC50: < 0.003 µM

## CC(=O)N[C@@H]1CCC[C@H](C(=O)Nc2cc(-c3cnn4c3C(O)C(C)(C)C4)c(Cl)cn2)C1 (single isomer, unassigned) [Example 79]
[1]
  IC50: 0.01 µM
CDK9/CycT1 [2]
  IC50: < 0.003 µM
CDK9/CycT1 [3]
  IC50: < 0.003 µM

## CC1(C)Cc2c(-c3cc(NC(=O)[C@H]4CCC[C@@H](NC(=O)CCO)C4)ncc3Cl)cnn2C1 [Example 52, (1S,3R)—N-(5-chloro-4-(5,5-dimethyl-5,6-dihydro-4H-pyrrolo[1,2-b]pyrazol-3-yl)pyridin-2-yl)-3-(3-hydroxypropanamido)cyclohexanecarboxamide]
CDK9/CycT1 [2]
  IC50: 0.004 µM
CDK9/CycT1 [3]
  IC50: < 0.003 µM

## CC(=O)N[C@H]1CCC[C@H](C(=O)Nc2cc(-c3cnn4c3CCCC4)c(Cl)cn2)C1 (single isomer, unassigned) [Example 62, trans-3-acetamido-N-(5-chloro-4-(4,5,6,7-tetrahydropyrazolo[1,5-a]pyridin-3-yl)pyridin-2-yl)cyclohexanecarboxamide]
[1]
  IC50: 0.333 µM
